Measurements published in patent US20080280939A1, “Combination of Organic Compounds” (priority 2004, published 2008).

Key:
[1] = 4-week toxicity study in rats; assay type: in vivo
Protocol: (§1) Rapamycin or derivatives thereof are well tolerated at dosages required for use in accordance with the present invention. For example, the NTEL for Compound A in a 4-week toxicity study is 0.5 mg/kg/day in rats and 1.5 mg/kg/day in monkeys.

[2] = 4-week toxicity study in monkeys; assay type: in vivo
Protocol: as §1

CO[C@H]1C[C@@H]2CC[C@@H](C)[C@@](O)(O2)C(=O)C(=O)N2CCCC[C@H]2C(=O)O[C@H]([C@H](C)C[C@@H]2CC[C@@H](OCCO)[C@H](OC)C2)CC(=O)[C@H](C)/C=C(\C)[C@@H](O)[C@@H](OC)C(=O)[C@H](C)C[C@H](C)/C=C/C=C/C=C/1C [Compound A, 40-0-(2-hydroxyethyl)-rapamycin]
NTEL [1]: 0.5 mg/kg/day | NTEL [2]: 1.5 mg/kg/day
